Source: patent publication US20080206149A1, “METHOD, DYE AND MEDICAMENT FOR STAINING THE INTERNAL LIMITING MEMBRANE, EPIRETINAL MEMBRANE, THE VITREOUS AND/OR THE CAPSULE OF AN EYE” (LUDWIG-MAXIMILIANS-UNIVERSITAT MUNCHEN, priority 2005, published 2008)

How the values were obtained:
[1] = Light absorbing properties (UV/VIS/NIR spectrometer); assay type: physicochemical; conditions: measured up to a content of 0.05% dye
Experimental: Light absorption was measured in 0.05% solutions, with BSS plus as a solvent medium. Light absorption was measured instantly after preparation of a stock solution of the dye using a UV/VIS/NIR Spectrometer (Lambda 900, Perkin Elmer) between 200 and 1000 nm.

primary RPE cells [2] = assay: Life-dead assay (propidium iodide / Hoechst 33342), primary RPE cells; assay type: cell-based; conditions: primary RPE cells, 0.2% and 0.02% dye, 24 hours after treatment, compared to BSS plus
Experimental: Invest Ophthalmol Vis Sci 2002; 43: 3575-82.
Confluent RPE and ARPE-19 cells were prepared and treated as described above. Cell viability was quantified based on a two-color fluorescence assay in which the nuclei of nonviable cells appear red because of staining by the membrane-impermeable dye propidium iodide (Sigma), whereas the nuclei of all cells were stained with the membrane-permeable dye Hoechst 33342 (Intergen, Purchase, N.Y.). […] For evaluation of cell viability, cells were washed in PBS and incubated with 2.0 μg/mL propidium iodide and 1.0 μg/mL Hoechst 33342 for 20 minutes at 37° C. Subsequently, cells were analyzed with an epifluorescence microscope (Axioskop; Zeiss, Göttingen, Germany). The labeled nuclei were then counted in fluorescence photomicrographs, and dead cells were expressed as a percentage of total nuclei in the field. The data are based on counts from three experiments performed in duplicate wells, with three to five documented representative fields per well.

vitreous = assay: Staining of the vitreous during vitrectomy in humans using BPB (Example 1); assay type: in vivo; conditions: 0.2%
Experimental: All patients (n=9) gave their written informed consent before surgery. […] A standard three port pars plana vitrectomy was performed. First, the transparent vitreous was removed as thoroughly as possible using the vitrectomy probe. Then fluid air exchange was performed and a few drops of the dye (BPB, 0.2%) were injected. After one minute, the dye was washed out by irrigation.

human lens capsule = assay: Capsulorhexis in patients with white cataracts (Example 2); assay type: in vivo
Excerpt: In previous experimental studies, we have investigated a number of vital dyes in-vivo and in-vitro in order to evaluate their staining characteristics and safety (C. Haritoglou, A. Yu, W. Freyer, S. G. Priglinger, C. Alge, K. Eibl, C. A. May, U. Welge-Luessen, A. Kampik, “An evaluation of novel vital dyes for intraocular surgery”, Invest Ophthalmol Vis Sci 46 (2005), pp. 3315-22; F. Schuettauf, C. Haritoglou, C. A. May, R. Rejdak, A. Mankowska, W. Freyer, K. Eibl, E. Zrenner, A. Kampik, S. Thaler, “Administration of novel dyes for intraocular surgery: an in vivo toxicity animal study”, Invest Ophthalmol Vis Sci 47 (2006), pp. 3573-8; C. Haritoglou, R. Tadayoni, C. A. May, C. A. Gass, W. Freyer, S. G. Priglinger, A. Kampik, “Short-term in vivo evaluation of novel vital dyes for intraocular surgery”, Retina 26 (2006), pp. 673-8). […] Prior to the application in humans, the toxicity of bromphenol blue had been thoroughly investigated in experimental settings including ex-vivo cell culture models and in-vivo animal studies with intraocular exposure times of up to seven days (C. Haritoglou, A. Yu, W. Freyer, S. G. Priglinger, C. Alge, K. Eibl, C. A. May, U. Welge-Luessen, A. Kampik, “An evaluation of novel vital dyes for intraocular surgery”, Invest Ophthalmol Vis Sci 46 (2005), pp. 3315-22; F. Schuettauf, C. Haritoglou, C. A. May, R. Rejdak, A. Mankowska, W. Freyer, K. Eibl, E. Zrenner, A. Kampik, S. Thaler, “Administration of novel dyes for intraocular surgery: an in vivo toxicity animal study”, Invest Ophthalmol Vis Sci 47 (2006), pp. 3573-8; C. Haritoglou, R. Tadayoni, C. A. May, C. A. Gass, W. Freyer, S. G. Priglinger, A. Kampik, “Short-term in vivo evaluation of novel vital dyes for intraocular surgery”, Retina 26 (2006), pp. 673-8). […] The data obtained from these toxicity studies underlined the high biocompatibility of bromphenol blue. Bromphenol blue (C19H10Br4O5S, FW 670) has been used in the past as a vital stain to probe the blood-brain barrier and as a protein stain and as a pH indicator. In the present example, we describe experience using bromphenol blue to stain the human lens capsule in patients with white cataracts. This investigation was approved by the local ethics committee and the Institutional Review Board (IRB). Written informed consent was obtained from all patients prior to surgery.
Cataract formation was due to ocular trauma (n=2), uveitis (n=1) and unknown cause (n=2). Mean age was 59 years. All patients underwent a complete clinical examination before surgery. B-scan ultrasound of the globe was performed to rule out intraocular pathologies such as tumors or retinal detachments. Bromphenol blue powder was dissolved and diluted using BSS plus (balanced salt solution; Alcon Laboratories Inc., Fort Worth, Tex, USA) and sterilized using a 0.22 μm syringe filter. We used dye concentrations of approximately 0.1% (310 mOsm, pH 7.6). Five consecutive patients were included into this preliminary series of patients, three female and two male. Visual acuity was 20/400 or below before surgery and increased to 20/50 (mean) postoperatively. The dye was either injected into the air-filled (n=3) anterior chamber and carefully removed by injection of viscoelastic material (FIG. 7) immediately after injection or injected after having filled the anterior chamber with viscoelastic material (n=2) without prior air injection. In the latter case, the dye was evenly and gently distributed on the lens surface using the cannula and excessive dye was removed after completion of capsulorhexis (approximately one minute after application).

primary RPE cells [3] = assay: MTT assay, primary RPE cells; conditions: 0.2% and 0.02% dye, 10 minutes exposure, compared to BSS plus control
Excerpt: In brief, whole eyes were thoroughly cleansed in 0.9% NaCl solution, immersed in 5% polyvinyl pyrrolidone iodine, and rinsed again in the sodiumchloride solution. The anterior segment from each donor eye was removed and the posterior poles were examined with the aid of a binocular stereomicroscope to confirm the absence of gross retinal disease. Next, the neural retinas were carefully peeled away from the RPE-choroid-sclera using fine forceps. The eye cup was rinsed with Ca^2+ and Mg^2+-free Hank's balanced salt solution, and filled with 0.25% trypsin (GIBCO, Karlsruhe, Germany) for 30 min at 37° C. The trypsin was carefully aspirated and replaced with Dulbecco's modified eagles medium (DMEM, Biochrom, Berlin, Germany) supplemented with 20% fetal calf serum (FCS, Biochrom). Using a pipette, the media was gently agitated, releasing the RPE into the media by avoiding damage to Bruch's membrane. The RPE cell solution was transferred to a 50 ml flask (Falcon, Wiesbaden, Germany) containing 20 ml of DMEM (Biochrom) supplemented with 20% FCS (Biochrom) and maintained at 37° C. and 5% carbon dioxide. […] After having grown to confluency (100%), primary RPE cells were subcultured and maintained in DMEM (Biochrom) supplemented with 10% FCS (Biochrom) at 37° C. and 5% carbon dioxide. Primary RPE of passage 3-6 and ARPE-19 cells were used for experiments.
For exposure of dyes RPE and ARPE-19 cells were kept for 24 hours under serum free conditions. After washing cells three times with PBS, cells were incubated for 10 minutes with 300 μl of BSS plus containing 0.2% or 0.02% of dye, respectively. […] The dye was then removed by carefully rinsing cells with BSS plus three times. After 24 hours incubation with serum containing media the cell proliferation assay was performed. […]
The tetrazolium dye-reduction assay (MTT; 3-[4,5-dimethylthiazol-2-yl]-2,5-diphenyl tetrazolium bromide;) was used to determine cell survival rate. […] Absorption was measured by a scanning multiwell spectrophotometer at 550 nm (Molecular Probes, Garching, Germany). […]

[4] = approximately 0.1% dye, white cataract patients

## O=S1(=O)OC(c2cc(Br)c(O)c(Br)c2)(c2cc(Br)c(O)c(Br)c2)c2ccccc21 [Bromophenol blue, Bromophenole blue]
[1]
  position of the long wavelength maximum, influence of dye concentration: not influenced by the dye concentration
Primary RPE cells [2]
  cell viability, nuclei of nonviable cells labeled with propidium iodide: did not affect cell survival
vitreous; humans
  complications of complete removal of the vitreous: without complications
vitreous; washed out after one minute, patients with macular pucker or macular hole
  staining of vitreous remnants adherent to the retinal surface: bluish staining
Human lens capsule; all patients
  contrast between the white lens and the stained lens capsule: excellent contrast
Human lens capsule; [4]
  visual acuity before surgery: 20/400
  visual acuity postoperatively (mean): 20/50
Human lens capsule; approximately 0.1%, both injection techniques
  staining of the anterior lens capsule: predictable and uniform staining
Human lens capsule; follow-up up to five months postoperatively
  complications such as corneal edema, inflammation or decrease of corneal endothelial cells: no complications noted
Human lens capsule; human, in vivo
  penetration of the lens capsule by the dye: did not penetrate the lens capsule
  unwanted staining of other tissues such as the iris or the corneal endothelium: no unwanted staining of other tissues
Human lens capsule; one day postoperatively
  residual dye on the anterior lens capsule rim or any other ocular tissue: no residual dye was detected
Primary RPE cells [3]
  cell survival of primary RPE cells (MTT): no influence on cell survival
